Laboratory results reported in patent US8377894B2, “Drug and food or drink for improving pancreatic functions” (Morinaga Milk Industry Co., Ltd., priority 2005, dated 2013).
Read-outs that look alike come from different tables or passages of the source.

How the values were obtained:
[1] = tested on: db/db mice; conditions: for Pancreatic function protecting effect: 0.1 μg/animal; for Pancreatic function protecting effect / Serum insulin level relative to that observed in the negative test: 43rd day of continuous administration; for Serum insulin level relative to that observed in the negative test: 1 μg/animal; for Serum insulin levels on 43rd day of administration: male db/db mice, ELISA
Experimental: This test was performed in order to evaluate the pancreatic endocrine gland cell function (insulin production ability) protecting action of a compound having the cyclolanostane skeleton by using db/db mice known as a model animal of pancreatic hypofunction or pancreatic tissue dysfunction.
In this test, 6-week old male db/db mice (purchased from Clea Japan, Inc.) were used. These mice were divided into groups, each consisting of 7 animals. Each test sample was dissolved in DMSO, and the concentration was adjusted to 0.1 or 1 μg/mL with physiological saline. The final DMSO concentration was adjusted to 0.2%. The pancreatic disorder model mice were orally administered with 1 mL of the test sample once a day everyday for 42 days with a sonde. The serum insulin level was measured on the 43rd day of the continuous administration by using Lbis insulin mouse ELISA kit (Shibayagi Co., Ltd).

[2] = tested on: db/db mice; test: Pancreatic tissue protecting action: number and maximum area of Langerhans islets in pancreatic sections of db/db mice, Test Example 2; type: in vivo; conditions: for Maximum area of Langerhans islets relative to that observed in the negative test / Number of Langerhans islets relative to negative sample-administered mice: 1 μg, 43rd day of continuous administration; for The numbers of Langerhans islets in sections on 43rd day of administration / Maximum area of Langerhans islets on administration: male db/db mice, 1 μg orally once a day for 42 days; for The numbers of Langerhans islets in sections on 43rd day of administration: hematoxylin-eosin stained pancreatic sections; for Maximum area of Langerhans islets on administration: pancreatic sections
Experimental: The final DMSO concentration was adjusted to 0.2%. […] On the 43rd day of the continuous administration, the pancreas was extracted, divided into three portions of upstream, midstream and downstream from the duodenum side, and fixed with a formalin solution, and then paraffin blocks were prepared in a conventional manner. Section slides were prepared from the paraffin blocks, and subjected to hematoxylin-eosin staining. The numbers of Langerhans islets existing on the sections of the 3 position of the pancreas, and area of Langerhans islet having the maximum area on each section were measured by using an ocular micrometer on a microscope (“ECLIPSE E600”, NIKON CORP.).

[3] = 0.1 μg/animal orally once a day for 42 days
[4] = 1 μg/animal orally once a day for 42 days

Row | SMILES | Pancreatic function protecting effect [1] | Serum insulin level relative to that observed in the negative test [1] | Serum insulin levels on 43rd day of administration [1, 3] | Serum insulin levels on 43rd day of administration [1, 4] | Maximum area of Langerhans islets relative to that observed in the negative test [2] | Number of Langerhans islets relative to negative sample-administered mice [2] | The numbers of Langerhans islets in sections on 43rd day of administration [2] | Maximum area of Langerhans islets on administration [2]
1 | CC(C)CCCC(C)C1CCC2(C)C3CCC4C(C)(C)C(O)CCC45CC35CCC12C (stereo not shown) [Test sample 1, 9,19-cyclolanostan-3-ol] | any significant pancreatic function protecting effect was not observed | 160% | 1.74 ± 0.26 ng/mL | 3.19 ± 0.78 ng/mL | 1.8 times | 149% | 60.0 ± 14.8 piece | 78.6 ± 3.3 × 10^3 μm^2
2 | C=C(CCC(C)C1CCC2(C)C3CCC4C(C)(C)C(O)CCC45CC35CCC12C)C(C)C (stereo not shown) [Test sample 2, 24-methylene-9,19-cyclolanostan-3-ol] | any significant pancreatic function protecting effect was not observed | 170% | 1.94 ± 0.56 ng/mL | 3.39 ± 1.35 ng/mL | 3.1 times | 148% | 59.6 ± 11.6 piece | 140.0 ± 102.8 × 10^3 μm^2
